These results are taken from ChEMBL document CHEMBL5550135, “Targeting the cysteine biosynthesis pathway in microorganisms: Mechanism, structure, and drug discovery” (Eur J Med Chem, 2024).

Experiment [1] in a line: Inhibition of Methicillin-resistant Staphylococcus aureus ATCC 33591 Serine acetyltransferase.
For a further experiment, the system named is Staphylococcus aureus. The experiment is described as follows: Antibacterial activity against methicillin-resistant Staphylococcus aureus ATCC 33591 assessed as reduction in bacterial growth incubated for 18 hrs by broth microdilution method. The format is functional. On the technique in general: Dilution methods test growth across graded concentrations, often in twofold steps.

The nature of experiment [2]: Binding affinity to Salmonella Typhimurium ATCC 14028 O-acetylserine sulfhydrylase A assessed as dissociation constant. On the set-up: species or system Salmonella enterica subsp. enterica serovar Typhimurium.
Experiment [3] is described as follows: Binding affinity to Salmonella Typhimurium ATCC 14028 O-acetylserine sulfhydrylase B assessed as dissociation constant. On the set-up: species or system Salmonella enterica subsp. enterica serovar Typhimurium.
The test system of the next experiment is Escherichia coli. The experiment is described as follows: Antibacterial activity against Escherichia coli assessed as reduction in bacterial growth by broth microdilution method. The format is functional.
Experiment [4] concerns Mycobacterium tuberculosis. Briefly: Antimycobacterial activity against Mycobacterium tuberculosis H37Rv assessed as reduction in bacterial growth incubated for 7 days by resazurin based assay. As to conditions: 168 h, time 7 day. The format is functional. For orientation: The colour change of resazurin is a common sign of viable cells or microbes.
Experiment [5] can be described thus: Inhibition of Entamoeba histolytica O-acetylserine sulfhydrylase.
The target in experiment [6] is O-acetylserine sulfhydrylase (Mycobacterium tuberculosis, UniProt P9WP55). The experiment is described as follows: Inhibition of Mycobacterium tuberculosis ATCC 25618 Cysteine synthase A.
The nature of experiment [7]: Inhibition of Salmonella enterica Serine acetyltransferase by spectrophotometric analysis.
Experiment [8] in a line: Inhibition of Klebsiella pneumoniae Serine acetyltransferase.

Converted amounts (≈) assume the structure as drawn.

In experiment [1], `CC1(C)CCC[C@]2(C)[C@@H]1CC[C@]1(O)[C@H](O)C3=C(CO)C(=O)OC3=C[C@@H]21` yielded an IC50 of 71800 nM. Further, the MIC in the experiment with Staphylococcus aureus is 25 µg/mL (≈ 71.7 µM). Consider `Cc1ccc(C[C@@]2(C(=O)O)C[C@H]2c2cccc(-c3cc(O)cc(F)c3)c2)cc1`, for which the Kd came to 30 nM in experiment [2] and 610 nM in experiment [3]. On to `Cc1ccc(S(=O)(=O)n2nc(-c3ccccc3)c3c(N)ncnc32)cc1`, for which, in the experiment with Escherichia coli, the MIC is 0.57 µg/mL (≈ 1.56 µM). With `O=C1N=C2C(C(=O)N=C3SC([N+](=O)[O-])=CN32)C(c2ccccc2C(F)(F)F)N1` (stereo unspecified), the MIC in [4] came out at 7.6 µM (≈ 3.13 µg/mL). Regarding `C[C@@H]1O[C@@H](O[C@@H]2C[C@H](c3ccc4c(c3O)C(=O)C3=C(C4=O)[C@@]4(O[C@H]5CC[C@H](O)[C@H](C)O5)C(=O)C[C@](C)(O)C[C@@]4(O)C=C3)O[C@H](C)[C@H]2O)CC[C@@H]1O[C@H]1C[C@@H](O)[C@H](O)[C@@H](C)O1`, the IC50 in experiment [5] came to 310 nM; in [6], 630 nM. For the molecule `Cc1cc(C)cc(Nc2nc(-c3cc(C(=O)O)no3)co2)c1`, in [7], the IC50 was determined as 4240 nM. Consider `Cc1ccc(Nc2nc(-c3cc(C(=O)O)no3)cs2)cc1`, for which half-maximal inhibition in [7] (IC50) was put at 110000 nM. `CC1=C2[C@@H](OC1=O)C(=O)[C@H]1[C@]3(C)CCCC(C)(C)[C@H]3CC[C@@]1(O)[C@H]2O`: in experiment [1], inhibition was half-maximal at 71800 nM (IC50). For the same molecule, in the experiment with Staphylococcus aureus, the MIC was 12.5 µg/mL (≈ 35.9 µM). Take `O=c1c(O)c(-c2ccc(O)c(O)c2)oc2cc(O)cc(O)c12` [QUERCETIN]: 3700 nM corresponded to half-maximal inhibition in experiment [8] (IC50). Take `O=C(CSc1c[nH]nn1)Nc1ccccc1F`: the MIC in the experiment with Escherichia coli turned out to be 1.6 µg/mL (≈ 6.34 µM). For `Cc1ccc(C[C@@]2(C(=O)O)C[C@H]2c2ccccc2)cc1`, the Kd in experiment [2] was found to be 20 nM; in experiment [3], 490 nM.

The term IC50 denotes the point on the concentration scale where inhibition reaches its midpoint. Read a low IC50 as inhibition by little substance. The MIC is the least concentration at which growth counts as inhibited. For orientation: Kd means the constant that tells how readily two partners part at equilibrium.
